Patent US20190046552A1, “COMPOSITIONS AND METHODS FOR THE TREATMENT OF HCV INFECTION” (priority 2015, published 2019)
Read-outs that look alike come from different tables or passages of the source.

Test: Part B (MAD): plasma PK of Formula (IIa) and its metabolites after once-daily oral Formula (IIa) for 7 days, fasted
Type: in vivo, human
Conditions: for Cmax / half-life / AUC(0-t) / Tmax / AUC(0-inf): human, in vivo
Protocol: Part B was a blinded, randomized, placebo-controlled MAD study consisting of four cohorts of eight subjects randomized 6:2 to receive Formula (IIa) or placebo. […] To control for the possible effect of the IL28b genotype, the number of subjects with CC alleles was capped at three per cohort.
The starting dose was determined by the SRC based on review of all safety and any available PK/PD data from Part A. All subjects were dosed in the fasted state with Formula (IIa) daily, from Day 1 until […]. All subjects had nothing by mouth other than water for at least 10 hours prior to daily dosing and for 4 hours thereafter. In Part B, all subjects were administered the study medication orally with approximately 240 mL of water at the same time every day (+/−10 minutes).
A subset of blood samples shown in Table 3 above was used for the PK evaluation of plasma trough concentrations (Table 4). In addition, blood sample assessment of antiviral response was collected according to the following sampling schedule for Part B (Table 4).
All plasma PK calculations were performed using actual time points calculated relative to the time of last drug administration.
PK analysis was conducted for all enrolled subjects that received any dose of Formula (IIa) with sufficient plasma sample data to assess PK parameters. […] Data analysis was performed using a validated version of WinNonlin® Enterprise (Version 5.2) software, and summary tables and figures were generated using a validated version of WinNonlin® Autopilot™ (Version 1.1.1) and other reporting tools, including SigmaPlot®.

With CO[C@H]1C(OP(=O)(OC[C@H]2O[C@@H](n3cnc4c(N)ncnc43)CC2O)SCOC(=O)OC(C)C)[C@@H](CO)O[C@H]1n1ccc(=O)[nH]c1=O (stereo partly shown) [Formula (IIa)] the Cmin (900 mg Formula (IIa) QD oral, fasted, Day 7, plasma, arithmetic mean (CV %)) was 0.00 (NC) ^ ng/ml, the Tmin (900 mg Formula (IIa) QD oral, fasted, Day 7, plasma, median (min, max)) was 0.00 h and the Cmax (200 to 900 mg Formula (IIa), Days 1 and 7, read-out: Cmax range) was 0.531 to 6.66 ng/mL. For the same compound, the half-life (Day 1, 400 mg and 900 mg QD doses, read-out: mean plasma t1/2 range) was 0.963 to 1.05 h, the AUC(0-t) (Day 1, 200-900 mg Formula (IIa) QD, read-out: mean AUC0-24 range across dose levels) was 0.512 to 7.91 ng·h/mL and the Cmax (Day 1, 200-900 mg Formula (IIa) QD, read-out: mean Cmax range across dose levels) was 0.531 to 3.75 ng/mL. The Tmax (Day 1, 200-900 mg Formula (IIa) QD, read-out: median Tmax, range across dose levels) was 1 to 1.51 h, the half-life (Day 7, 400 mg and 900 mg QD doses, read-out: mean plasma t1/2 range) was 0.684 to 1.07 h and the AUC(0-t) (Day 7, 200-900 mg Formula (IIa) QD, read-out: mean AUC0-24 range across dose levels) was 0.77 to 13.7 ng·h/mL. For the same compound, the Cmax (Day 7, 200-900 mg Formula (IIa) QD, read-out: mean Cmax range across dose levels) was 0.885 to 6.66 ng/mL, the Tmax (Day 7, 200-900 mg Formula (IIa) QD, read-out: median Tmax, range across dose levels) was 1 to 1.28 h and the half-life (Days 1 and 7, across dose levels, read-out: terminal half-life (t1/2), range of means) was 0.684 to 1.07 h. It also gave an AUC(0-t) (po, 200 mg, 200 mg Formula (IIa) QD oral, fasted, Day 1, plasma, arithmetic mean (CV %), read-out: AUC0-24) of 0.512 ng·h/mL, an AUC(0-t) (po, 200 mg, 200 mg Formula (IIa) QD oral, fasted, Day 1, plasma, arithmetic mean (CV %), read-out: AUC0-t) of 0.393 ng·h/mL and a Cmax (po, 200 mg, 200 mg Formula (IIa) QD oral, fasted, Day 1, plasma, arithmetic mean (CV %), read-out: Cmax) of 0.531 ng/mL. It also gave a Tmax (po, 200 mg, 200 mg Formula (IIa) QD oral, fasted, Day 1, plasma, median (min, max), read-out: Tmax) of 1 h, an AUC(0-t) (po, 200 mg, 200 mg Formula (IIa) QD oral, fasted, Day 7, plasma, arithmetic mean (CV %), footnote: AUC0-24 = AUC0-t on Day 7, read-out: AUC0-24) of 0.77 ng·h/mL and an AUC(0-t) (po, 200 mg, 200 mg Formula (IIa) QD oral, fasted, Day 7, plasma, arithmetic mean (CV %), read-out: AUC0-t) of 1.41 ng·h/mL. For the same compound, the Cmax (po, 200 mg, 200 mg Formula (IIa) QD oral, fasted, Day 7, plasma, arithmetic mean (CV %), read-out: Cmax) was 0.885 ng/mL, the Tmax (po, 200 mg, 200 mg Formula (IIa) QD oral, fasted, Day 7, plasma, median (min, max), read-out: Tmax) was 1 h and the AUC(0-t) (po, 400 mg, 400 mg Formula (IIa) QD oral, fasted, Day 1, plasma, arithmetic mean (CV %), read-out: AUC0-24) was 7.91 ng·h/mL. The AUC(0-t) (po, 400 mg, 400 mg Formula (IIa) QD oral, fasted, Day 1, plasma, arithmetic mean (CV %), read-out: AUC0-t) was 3.27 ng·h/mL, the Cmax (po, 400 mg, 400 mg Formula (IIa) QD oral, fasted, Day 1, plasma, arithmetic mean (CV %), read-out: Cmax) was 2.13 ng/mL and the half-life (po, 400 mg, 400 mg Formula (IIa) QD oral, fasted, Day 1, plasma, arithmetic mean (CV %), read-out: t1/2 (converted)) was 1.05 h. For the same compound, the Tmax (po, 400 mg, 400 mg Formula (IIa) QD oral, fasted, Day 1, plasma, median (min, max), read-out: Tmax) was 1.51 h, the AUC(0-t) (po, 400 mg, 400 mg Formula (IIa) QD oral, fasted, Day 7, plasma, arithmetic mean (CV %), footnote: AUC0-24 = AUC0-t on Day 7, read-out: AUC0-24) was 2.71 ng·h/mL and the AUC(0-t) (po, 400 mg, 400 mg Formula (IIa) QD oral, fasted, Day 7, plasma, arithmetic mean (CV %), read-out: AUC0-t) was 3.1 ng·h/mL. For the same compound, the Cmax (po, 400 mg, 400 mg Formula (IIa) QD oral, fasted, Day 7, plasma, arithmetic mean (CV %), read-out: Cmax) was 2.52 ng/mL, the half-life (po, 400 mg, 400 mg Formula (IIa) QD oral, fasted, Day 7, plasma, arithmetic mean (CV %), read-out: t1/2 (converted)) was 0.684 h and the Tmax (po, 400 mg, 400 mg Formula (IIa) QD oral, fasted, Day 7, plasma, median (min, max), read-out: Tmax) was 1.28 h. The AUC(0-t) (po, 900 mg, 900 mg Formula (IIa) QD oral, fasted, Day 1, plasma, arithmetic mean (CV %), read-out: AUC0-24) was 4.58 ng·h/mL, the AUC(0-t) (po, 900 mg, 900 mg Formula (IIa) QD oral, fasted, Day 1, plasma, arithmetic mean (CV %), read-out: AUC0-t) was 5.31 ng·h/mL and the Cmax (po, 900 mg, 900 mg Formula (IIa) QD oral, fasted, Day 1, plasma, arithmetic mean (CV %), read-out: Cmax) was 3.75 ng/mL. It also gave a half-life (po, 900 mg, 900 mg Formula (IIa) QD oral, fasted, Day 1, plasma, arithmetic mean (CV %), read-out: t1/2 (converted)) of 0.963 h, a Tmax (po, 900 mg, 900 mg Formula (IIa) QD oral, fasted, Day 1, plasma, median (min, max), read-out: Tmax) of 1.04 h and an AUC(0-t) (po, 900 mg, 900 mg Formula (IIa) QD oral, fasted, Day 7, plasma, arithmetic mean (CV %), footnote: AUC0-24 = AUC0-t on Day 7, read-out: AUC0-24) of 13.7 ng·h/mL. The AUC(0-t) (po, 900 mg, 900 mg Formula (IIa) QD oral, fasted, Day 7, plasma, arithmetic mean (CV %), read-out: AUC0-t) was 9.39 ng·h/mL, the Cmax (po, 900 mg, 900 mg Formula (IIa) QD oral, fasted, Day 7, plasma, arithmetic mean (CV %), read-out: Cmax) was 6.66 ng/mL and the half-life (po, 900 mg, 900 mg Formula (IIa) QD oral, fasted, Day 7, plasma, arithmetic mean (CV %), read-out: t1/2 (converted)) was 1.07 h. For the same compound, the Tmax (po, 900 mg, 900 mg Formula (IIa) QD oral, fasted, Day 7, plasma, median (min, max), read-out: Tmax) was 1.25 h, the AUC(0-inf) (400 mg Formula (IIa) QD oral, fasted, Day 1, plasma, arithmetic mean (CV %)) was 8.04 ng·h/mL and the AUC(0-inf) (900 mg Formula (IIa) QD oral, fasted, Day 1, plasma, arithmetic mean (CV %)) was 7.25 ng·h/mL. The mean trough levels (multiple once daily oral Formula (IIa) QD for 7 days, fasted) was “BLQ”.
